{
  "source": "paper PMC10383801",
  "about": "(Pharmaceutics, 2023)",
  "key": {"[1]": {"tested_on": "diabetic rats", "assay": "Antidiabetic effect study in diabetic rats", "type": "in vivo", "settings": "streptozotocin-induced diabetic rats; for reduction in blood glucose level (in words): 5 rats per group, glucometer, 0-8 h", "protocol": "Glucose lowering effect of orally administered optimized SMEDDS was monitored in diabetic rats. Study was performed with the approval Pharmacy Ethical Committee, Bahauddin Zakariya University, Multan, Pakistan (249/PEC/2023 dated 25 March 2023). Diabetes was introduced in rats weighing 220–240 g by injecting streptozotocin solution at the dose of (45 mg/kg body weight) intraperitoneally. Fasting blood glucose (FBG) level of all the rats was measured after 3 days using glucometer (AccuChek Performa, Hoffman-La Roche, Basel, Switzerland). Rats with FBG level 200–250 mg/dL were considered diabetic and were included in the study. All rats were fasted over night before experiment and start of treatment. Diabetic rats were divided randomly in 5 groups with 5 rats per group. […] Blood samples were collected at regular time intervals, i.e., 0, 0.5, 1, 1.5, 2, 3, 4, 6, and 8 h and measured for hypoglycemic effects using glucometer."}, "[2]": {"settings": "stated without reference; cited from earlier work", "text": "HIP of peptides with surfactants is an efficient tool to enhance its lipophilic characteristics. […] These six positively charged amino acids (two Histidine, one Arginine, one Lysine and two N-terminal amino aci ..."}, "[3]": {"assay": "Solubility in n-octanol", "type": "physicochemical", "settings": "insulin measured spectrophotometrically at 270 nm, sentence also cites refs 14, 15", "protocol": "After 4 h of magnetic stirring, the mixture was centrifuged for 30 min at 5000 rpm."}},
  "data": [
    {"substance": "Human insulin", "values": [
      {"measurement": "reduction in blood glucose level (in words)", "setting": "[1]; oral, 50 IU/kg insulin equivalent", "value": "negligible anti-diabetic effect"},
      {"measurement": "reduction in blood glucose level (in words)", "setting": "[1]; subcutaneous, 5 IU/kg", "value": "Maximum reduction in blood glucose level"},
      {"measurement": "duration of glucose lowering effect", "setting": "[1]; subcutaneous, 5 IU/kg, entire duration of the experiment", "value": "up to 8 h"},
      {"measurement": "isoelectric point", "setting": "[2]", "value": "5.35–5.45"},
      {"measurement": "solubility in n-octanol", "setting": "[3]", "value": "~17", "unit": "µg/mL"}
    ]}
  ]
}
